# Measurements as given in PubChem BioAssay (NCI).
#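 Step 1: Grow cells in 96-well plates. Step 2: Expose to compound for 48 hours at 5 concentrations. Step 3: Interpolate endpoints linearly; if unreached, use highest concentration. GI50 = concentration required for 50% inhibition of growth. At the TGI there is no net growth.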
# Key:
# Test in all cases: NCI-60 cell line screen, 48 h
# [1] = system: 786-0 renal
# [2] = system: A498 renal
# [3] = system: ACHN renal
# [4] = system: BT-549 breast
# [5] = system: CCRF-CEM leukemia
# [6] = system: COLO 205 colon
# [7] = system: DU-145 prostate
# [8] = system: EKVX NSCLC
# [9] = system: HCC-2998 colon
# [10] = system: HCT-116 colon
# [11] = system: HCT-15 colon
# [12] = system: HL-60(TB) leukemia
# [13] = system: HOP-62 NSCLC
# [14] = system: HOP-92 NSCLC
# [15] = system: HS 578T breast
# [16] = system: HT29 colon
# [17] = system: IGROV1 ovarian
# [18] = system: K-562 leukemia
# [19] = system: KM12 colon
# [20] = system: LOX IMVI melanoma
# [21] = system: M14 melanoma
# [22] = system: MCF7 breast
# [23] = system: MDA-MB-231 breast
# [24] = system: MOLT-4 leukemia
# [25] = system: NCI-H226 lung
# [26] = system: NCI-H23 lung
# [27] = system: NCI-H460 lung
# [28] = system: NCI-H522 lung
# [29] = system: NCI/ADR-RES ovarian
# [30] = system: OVCAR-4 ovarian
# [31] = system: OVCAR-5 ovarian
# [32] = system: OVCAR-8 ovarian
# [33] = system: PC-3 prostate
# [34] = system: RPMI-8226 leukemia
# [35] = system: SF-268 CNS
# [36] = system: SF-295 CNS
# [37] = system: SF-539 CNS
# [38] = system: SK-MEL-2 melanoma
# [39] = system: SK-MEL-28 melanoma
# [40] = system: SK-MEL-5 melanoma
# [41] = system: SK-OV-3 ovarian
# [42] = system: SN12C renal
# [43] = system: SNB-19 CNS
# [44] = system: SNB-75 CNS
# [45] = system: SR leukemia
# [46] = system: SW-620 colon
# [47] = system: T-47D breast
# [48] = system: TK-10 renal
# [49] = system: U251 CNS
# [50] = system: UACC-257 melanoma
# [51] = system: UACC-62 melanoma
compound,measurement,setting,value
COc1cc(-c2nc3ccccc3s2)ccc1OCCCCCOc1cc2c(cc1OC)C(=O)N1CCC[C@H]1C=N2,GI50,[1],0.0843 µM
same,TGI,[1],0.38 µM
same,GI50,[2],0.199 µM
same,TGI,[2],0.358 µM
same,GI50,[3],0.0535 µM
same,TGI,[3],0.398 µM
same,GI50,[4],0.0457 µM
same,TGI,[4],0.126 µM
same,GI50,[5],0.0275 µM
same,TGI,[5],2.16 µM
same,GI50,[6],0.0992 µM
same,TGI,[6],0.332 µM
same,GI50,[7],0.104 µM
same,TGI,[7],5.31 µM
same,GI50,[8],0.364 µM
same,TGI,[8],0.953 µM
same,GI50,[9],0.125 µM
same,TGI,[9],0.3 µM
same,GI50,[10],0.0387 µM
same,TGI,[10],10.1 µM
same,GI50,[11],0.284 µM
same,TGI,[11],6.02 µM
same,GI50,[12],0.0757 µM
same,TGI,[12],0.699 µM
same,GI50,[13],0.0851 µM
same,TGI,[13],0.95 µM
same,GI50,[14],0.1 µM
same,TGI,[14],0.397 µM
same,GI50,[15],0.219 µM
same,TGI,[15],0.6 µM
same,GI50,[16],0.0837 µM
same,TGI,[16],4.27 µM
same,GI50,[17],0.244 µM
same,GI50,[18],0.0321 µM
same,TGI,[18],2.23 µM
same,GI50,[19],0.206 µM
same,TGI,[19],1.6 µM
same,GI50,[20],0.129 µM
same,TGI,[20],7.97 µM
same,GI50,[21],0.0762 µM
same,TGI,[21],0.257 µM
same,GI50,[22],0.0324 µM
same,TGI,[22],0.701 µM
same,GI50,[23],0.145 µM
same,TGI,[23],1.97 µM
same,GI50,[24],0.0413 µM
same,TGI,[24],2.27 µM
same,GI50,[25],0.212 µM
same,TGI,[25],0.528 µM
same,GI50,[26],0.114 µM
same,TGI,[26],0.365 µM
same,GI50,[27],0.0768 µM
same,TGI,[27],2.06 µM
same,GI50,[28],0.0974 µM
same,TGI,[28],1.14 µM
same,GI50,[29],0.376 µM
same,TGI,[29],4.76 µM
same,GI50,[30],0.264 µM
same,GI50,[31],0.154 µM
same,TGI,[31],7.87 µM
same,GI50,[32],0.168 µM
same,TGI,[32],> 69.8 µM
same,GI50,[33],0.103 µM
same,TGI,[33],0.665 µM
same,GI50,[34],0.0972 µM
same,TGI,[34],0.424 µM
same,GI50,[35],0.305 µM
same,TGI,[35],3.53 µM
same,GI50,[36],0.14 µM
same,TGI,[36],> 63.3 µM
same,GI50,[37],0.0864 µM
same,TGI,[37],0.286 µM
same,GI50,[38],0.201 µM
same,TGI,[38],0.463 µM
same,GI50,[39],0.255 µM
same,GI50,[40],0.059 µM
same,TGI,[40],0.135 µM
same,GI50,[41],0.177 µM
same,TGI,[41],0.674 µM
same,GI50,[42],0.256 µM
same,TGI,[42],4.54 µM
same,GI50,[43],0.213 µM
same,TGI,[43],4.61 µM
same,GI50,[44],0.191 µM
same,TGI,[44],0.779 µM
same,GI50,[45],< 0.0132 µM
same,GI50,[46],0.0912 µM
same,TGI,[46],1.03 µM
same,GI50,[47],0.0407 µM
same,TGI,[47],0.16 µM
same,GI50,[48],0.334 µM
same,TGI,[48],14.1 µM
same,GI50,[49],0.0632 µM
same,TGI,[49],7.14 µM
same,GI50,[50],0.253 µM
same,TGI,[50],1.17 µM
same,GI50,[51],0.114 µM
same,TGI,[51],0.265 µM
